Reference: ChEMBL document CHEMBL3272269, “Synthesis and antileukemic activities of furanyl, pyranyl, and ribosyl derivatives of 4-(3,3-dimethyl-1-triazeno)imidazole-5-carboxamide and 3-(3,3-dimethyl-1-triazeno)pyrazole-4-carboxamide” (J Med Chem, 1979)
Active and inactive are the calls of the source. The rule behind the calls is not given here.

How the values were obtained:
[1] = test system: Mus musculus; assay: Toxicity in mouse L1210 cells allografted mouse assessed as reduction in body weight at 200 mg/kg administered on day 1 followed by 5 injections with 1 day interval; assay type: organism-based; parameters: dose 200 mg/kg; conditions: in vivo, 24 h
[2] = test system: Mus musculus; assay: Toxicity in mouse L1210 cells allografted mouse assessed as reduction in body weight at 100 mg/kg administered on day 1 followed by 5 injections with 1 day interval; assay type: organism-based; parameters: dose 100 mg/kg; conditions: in vivo, 24 h
[3] = test system: Mus musculus; assay: Toxicity in mouse L1210 cells allografted mouse assessed as reduction in body weight at 400 mg/kg administered on day 1 followed by 5 injections with 1 day interval; assay type: organism-based; parameters: dose 400 mg/kg; conditions: in vivo, 24 h
[4] = test system: L1210; assay: Antitumor activity against mouse L1210 cells allografted in mouse assessed as survival at 200 mg/kg administered on day 1 followed by 5 injections with 1 day interval; assay type: functional, organism-based; parameters: dose 200 mg/kg
[5] = test system: L1210; assay: Antitumor activity against mouse L1210 cells allografted in mouse assessed as survival at 100 mg/kg administered on day 1 followed by 5 injections with 1 day interval; assay type: functional, organism-based; parameters: dose 100 mg/kg
[6] = test system: L1210; assay: Antitumor activity against mouse L1210 cells allografted in mouse assessed as survival at 400 mg/kg administered on day 1 followed by 5 injections with 1 day interval; assay type: functional, organism-based; parameters: dose 400 mg/kg
[7] = test system: L1210; assay: Antitumor activity against mouse L1210 cells allografted in mouse assessed as increase in survival at 200 mg/kg administered on day 1 followed by 5 injections with 1 day interval relative to control; assay type: functional
[8] = test system: L1210; assay: Antitumor activity against mouse L1210 cells allografted in mouse assessed as increase in survival at 100 mg/kg administered on day 1 followed by 5 injections with 1 day interval relative to control; assay type: functional
[9] = test system: L1210; assay: Antitumor activity against mouse L1210 cells allografted in mouse assessed as increase in survival at 400 mg/kg administered on day 1 followed by 5 injections with 1 day interval relative to control; assay type: functional
[10] = test system: Mus musculus; assay: Toxicity in mouse L1210 cells allografted BDF1 mouse assessed as reduction in body weight at 180 mg/kg administered on day 1 followed by 9 injections with 1 day interval; assay type: organism-based; parameters: dose 180 mg/kg; conditions: in vivo, 24 h
[11] = test system: Mus musculus; assay: Toxicity in mouse L1210 cells allografted BDF1 mouse assessed as reduction in body weight at 109 mg/kg administered on day 1 followed by 9 injections with 1 day interval; assay type: organism-based; parameters: dose 109 mg/kg; conditions: in vivo, 24 h
[12] = test system: Mus musculus; assay: Toxicity in mouse L1210 cells allografted BDF1 mouse assessed as reduction in body weight at 65 mg/kg administered on day 1 followed by 9 injections with 1 day interval; assay type: organism-based; parameters: dose 65 mg/kg; conditions: in vivo, 24 h
[13] = test system: Mus musculus; assay: Toxicity in mouse L1210 cells allografted mouse assessed as reduction in body weight at 50 mg/kg administered on day 1 followed by 5 injections with 1 day interval; assay type: organism-based; parameters: dose 50 mg/kg; conditions: in vivo, 24 h
[14] = test system: L1210; assay: Antitumor activity against mouse L1210 cells allografted in mouse assessed as survival at 50 mg/kg administered on day 1 followed by 5 injections with 1 day interval; assay type: functional, organism-based; parameters: dose 50 mg/kg
[15] = test system: L1210; assay: Antitumor activity against mouse L1210 cells allografted in mouse assessed as increase in survival at 50 mg/kg administered on day 1 followed by 5 injections with 1 day interval relative to control; assay type: functional
[16] = test system: Mus musculus; assay: Toxicity in mouse L1210 cells allografted BDF1 mouse assessed as reduction in body weight at 400 mg/kg administered on day 1 followed by 3 injections with 4 day interval; assay type: organism-based; parameters: dose 400 mg/kg; conditions: in vivo, 96 h
[17] = test system: Mus musculus; assay: Toxicity in mouse L1210 cells allografted BDF1 mouse assessed as reduction in body weight at 200 mg/kg administered on day 1 followed by 3 injections with 4 day interval; assay type: organism-based; parameters: dose 200 mg/kg; conditions: in vivo, 96 h
[18] = test system: Mus musculus; assay: Toxicity in mouse L1210 cells allografted BDF1 mouse assessed as reduction in body weight at 100 mg/kg administered on day 1 followed by 3 injections with 4 day interval; assay type: organism-based; parameters: dose 100 mg/kg; conditions: in vivo, 96 h
[19] = test system: L1210; assay: Antitumor activity against mouse L1210 cells allografted in mouse assessed as survival at 400 mg/kg administered on day 1 followed by 3 injections with 4 day interval; assay type: functional, organism-based; parameters: dose 400 mg/kg
[20] = test system: L1210; assay: Antitumor activity against mouse L1210 cells allografted in mouse assessed as survival at 200 mg/kg administered on day 1 followed by 3 injections with 4 day interval; assay type: functional, organism-based; parameters: dose 200 mg/kg
[21] = test system: L1210; assay: Antitumor activity against mouse L1210 cells allografted in mouse assessed as survival at 100 mg/kg administered on day 1 followed by 3 injections with 4 day interval; assay type: functional, organism-based; parameters: dose 100 mg/kg
[22] = test system: L1210; assay: Antitumor activity against mouse L1210 cells allografted in mouse assessed as increase in survival at 400 mg/kg administered on day 1 followed by 3 injections with 4 day interval relative to control; assay type: functional
[23] = test system: L1210; assay: Antitumor activity against mouse L1210 cells allografted in mouse assessed as increase in survival at 200 mg/kg administered on day 1 followed by 3 injections with 4 day interval relative to control; assay type: functional
[24] = test system: L1210; assay: Antitumor activity against mouse L1210 cells allografted in mouse assessed as increase in survival at 100 mg/kg administered on day 1 followed by 3 injections with 4 day interval relative to control; assay type: functional

Compound | Activity [1] [g] | Activity [2] [g] | Activity [4] | Activity [5] | T/C [7] [%] | T/C [8] [%] | Activity [16] [g] | Activity [17] [g] | Activity [18] [g] | Activity [19] | Activity [20] | Activity [21] | T/C [22] [%] | T/C [23] [%] | T/C [24] [%] | also measured
CC(=O)OC[C@H]1O[C@@H](n2cnc(/N=N/N(C)C)c2C(N)=O)[C@H](OC(C)=O)[C@@H]1OC(C)=O | 1.6 | 1.5 | Active | Active | 124 | 123 | – | – | – | – | – | – | – | – | – | Activity [3]: 2.2 g; Activity [6]: Active; T/C [9]: 157%
CN(C)/N=N/c1[nH]ncc1C(N)=O | – | – | – | – | – | – | – | – | – | – | – | – | – | – | – | Activity [10]: 4.9 g; Activity [11]: 3.7 g; Activity [12]: 3.2 g
CN(C)/N=N/c1nn(C2CCCO2)cc1C(N)=O (stereo not given) | 3.7 | 2.3 | Active | Active | 134 | 141 | – | – | – | – | – | – | – | – | – | Activity [13]: 1.8 g; Activity [14]: Active; T/C [15]: 129%
CN(C)/N=N/c1c(C(N)=O)cnn1C1CCCCO1 (stereo not given) | – | – | – | – | – | – | 3.5 | 3.1 | 2.2 | Active | Active | Active | 123 | 117 | 107 | –
CN(C)/N=N/c1ncn(C2CCCO2)c1C(N)=O (stereo not given) | 4.3 | 1.9 | Active | Active | 115 | 125 | – | – | – | – | – | – | – | – | – | –
CN(C)/N=N/c1nn(C2CCCCO2)cc1C(N)=O (stereo not given) | – | – | – | – | – | – | 2.9 | 1 | 0.9 | Active | Active | Active | 119 | 108 | 108 | –
